# Like-named read-outs stand apart in the source and are kept apart here.
# Tests used:
# Type in all cases: in vivo
# Nilaparvata lugens [1] = assay: Test Example 3: spray on rice seedling, Nilaparvata lugens larvae released; conditions: 144 h, active ingredient 500 ppm, 10 ml sprayed on rice seedling, third-fourth instar larvae, after 6 days, read-out: control value
# Aphis gossypii [2] = assay: Test Example 2: drench at foot of cucumber seedling, later inoculated with Aphis gossypii; conditions: soil, 144 h, active ingredient 500 ppm, 5 ml drench at foot of cucumber seedling, 7 days at 25°C, then inoculated and kept 6 days, read-out: control value
# Description: (§1) On the other hand, a cucumber seedling (the second true leaf stage) planted in a plastic cup was drenched at its foot with 5 ml of the test drug solution, and kept in a greenhouse at 25°C for 7 days. On the cucumber leaf surface was inoculated about 30 Aphis gossypii (whole stage), and further kept in the greenhouse for 6 days, then the number of surviving Aphis gossypii parasitic on the leaves of the cucumber was examined, and the control value was calculated according to the following equation: Control value (%) = {1-(Cb×Tai)/(Cai×Tb)} × 100 [formula] wherein the symbols represent as follows: • Cb: the number of insects in a non-treated section before treatment • Cai: the number of surviving parasitic insects in a non-treated section on observation • Tb: the number of insects in a treated section before treatment • Tai: the number of surviving parasitic insects in a treated section on observation • wherein the non-treated section refers to a section where the test drug solution prepared by diluting the formulation obtained as in Formulation Example 5 but not containing the compound of the present invention with the same amount of water as in the treated section was sprayed.
# [3] = tested on: Adoxophyes orana fasciata; assay: Test Example 7: spray on apple tree, Adoxophyes orana fasciata larvae released; conditions: in Malus domestica, 168 h, active ingredient 500 ppm, 20 mL/cup sprayed on apple tree, first-instar larvae, after 7 days, read-out: death rate
# Description: The formulations of Compounds of Present Invention 1-1 to 1-6, 1-10, 1-21, 1-28, 1-31 to 1-34, 1-39 and 1-42 as obtained in Formulation Example 5 were diluted with water, so as to have a concentration of the active ingredient of 500 ppm, to prepare a test spray solution.
# On the other hand, an apple tree was planted in a plastic cup, and grown until the seventh-eighth true leaf was spread. To the apple tree was sprayed, at a rate of 20 mL/cup, the test drug solution. After the drug solution was dried, 60 first-instar larvae of Adoxophyes orana fasciata were released, and covered with a plastic cup the bottom of which was cut off and on which a filter paper was put, with the plastic cup cover placed upside-down. After 7 days, the number of dead insects was counted, and the death rate was calculated according to the following equation. Death rate (%) = (Number of dead insects/Number of tested insects) × 100 [formula]
# Plutella xylostella = assay: Test Example 6: spray on cabbage, Plutella xylostella larvae released; conditions: 120 h, read-out: death rate
# Description: On the other hand, on cabbage at the third leaf stage planted in a polyethylene cup was sprayed, at a rate 20 mL/cup, the test drug solution. After the drug solution was dried, the foliage part was cut off, and then placed in a 50 mL volume cup. Five second instar larvae of Plutella xylostella were released into the cup, and the cup was sealed with a lid. After the cup was kept at 25°C for 5 days, the number of dead insects was counted. The death rate was calculated according to the following equation. Death rate (%) = (Number of dead insects/Number of tested insects) × 100 [formula]
# Nilaparvata lugens [4] = assay: Test Example 4: drench at foot of rice seedling, Nilaparvata lugens larvae released; conditions: active ingredient 500 ppm, 5 ml drench at foot of rice seedling, 7 days at 25°C, then third-fourth instar larvae kept 6 days; for mortality at 500 ppm: Nilaparvata lugens, soil, 144 h, read-out: control value
# Musca domestica = assay: whole plant or invertebrate; conditions: 24 h, read-out: death rate
# Description: The formulations of Compounds of Present Invention 1-1, 1-40 and 1-42 as obtained in Formulation Example 5 were diluted with water, so as to have a concentration of the active ingredient of 500 ppm, to prepare a test drug solution.
# A filter paper having a diameter of 5.5 cm was spread on the bottom of a polyethylene cup having the same diameter and 0.7 ml of the test drug solution was added dropwise onto the filter paper, and 30 mg of sucrose was uniformly placed as bait. Into the polyethylene cup, 10 female imagoes of Musca domestica were released, and the cup was sealed with a lid. After 24 hours, the life and death of Musca domestica was examined, the number of dead insects was counted, and the death rate was calculated according to the following equation. Death rate (%) = (Number of dead insects/Number of tested insects) × 100 [formula]
# [5] = tested on: Haemaphysalis longicornis; assay: Test Example 11: coated screw tube contact test, Haemaphysalis longicornis ticks; conditions: 48 h, 2 mg compound in 0.2 mL acetone coated on inner wall of screw tube, unfed nymphal ticks, after 2 days, read-out: death rate
# Description: 2 mg of each of Compounds of Present Invention 1-5, 1-24, 1-32 to 1-33, and 1-36 was weighed in a screw tube (Maruemu No. 5; 27 × 55 mm), 0.2 mL of acetone was added thereto, and the screw tube was sealed with a cap to dissolve the compound. The screw tube was rotated and inverted to uniformly coat the drug solution onto the whole inner wall of the tube. After removing the cap, the solution was air-dried for about 2 hours, then unfed nymphal ticks, Haemaphysalis longicornis (5 ticks/group) were released, and the tube was sealed with the cap. After 2 days, the number of dead insects was counted, and the death rate was calculated according to the following equation. Death rate (%) = (Number of dead insects/Number of tested insects) × 100 [formula]
# Aphis gossypii [6] = assay: Test Example 1: foliar spray on cucumber seedling inoculated with Aphis gossypii; conditions: 144 h, active ingredient 500 ppm, 20 ml sprayed on cucumber seedling, six days after spraying, read-out: control value
# Description: as §1, with “hand, on” for “hand,”, “first” for “second”, “inoculated” for “drenched at its foot”, “with” for “with 5 ml of the test drug solution, and kept in a greenhouse at 25°C for 7 days. On the cucumber leaf surface was inoculated”, “left for a day. 20 ml of” for “further kept in”, “test drug solution was sprayed on the seedling. Six days after spraying,” for “greenhouse for 6 days, then”
# Culex pipiens pallens = assay: Test Example 10: Culex pipiens pallens larvae in treated water; conditions: 24 h, read-out: death rate
# Text: 20 last-instar larvae of Culex pipiens pallens were released into the solution. One day later, the life and death of the Culex pipiens pallens was examined, and the number of dead insects was counted to calculate the death rate. Death rate (%) = (Number of dead insects/Number of tested insects) × 100 [formula]
# [7] = active ingredient 500 ppm, 20 mL/cup sprayed on cabbage, second instar larvae, 25°C for 5 days
# [8] = active ingredient concentration 3.5 ppm in ion-exchanged water, last-instar larvae, one day later
compound,measurement,setting,value
CCS(=O)(=O)c1cc(C(=O)N(C)C)cnc1-c1nc2cc([S+]([O-])C(F)(F)F)ccc2o1 (centres unmarked) [Compound of Present Invention 1-42],mortality at 500 ppm,Nilaparvata lugens [1],≥ 90%
same,mortality at 500 ppm,Aphis gossypii [2],≥ 90%
same,mortality at 500 ppm,[3],≥ 90%
same,mortality at 500 ppm,Plutella xylostella; [7],≥ 80%
same,mortality at 500 ppm,Nilaparvata lugens [4],≥ 90%
same,mortality at 500 ppm,Musca domestica,100%
"CCS(=O)(=O)c1cc(C(=O)OC(C)(C)C)cnc1-c1nc2cc(C(F)(F)F)cnc2n1C [Compound of Present Invention 1-5, tert-butyl 5-ethylsulfonyl-6-(3-methyl-6-trifluoromethyl-3H-imidazo[4,5-b]pyridin-2-yl)nicotinate]","mortality at 2 mg/tube, 2 mg/tube",[5],100%
"CCS(=O)(=O)c1cc(C(C)=O)cnc1-c1nc2cc(C(F)(F)F)cnc2n1C [Compound of Present Invention 1-21, 2-(5-acetyl-3-ethylsulfonylpyridin-2-yl)-3-methyl-6-trifluo romethyl-3H-imidazo[4,5-b] pyridine]",mortality at 500 ppm,Aphis gossypii [2],≥ 90%
same,mortality at 500 ppm,[3],≥ 90%
same,mortality at 500 ppm,Aphis gossypii [6],≥ 90%
CCS(=O)(=O)c1cc(C(=O)N2CCOCC2)cnc1-c1nc2cc(C(F)(F)F)cnc2n1C [Compound of Present Invention 1-13],mortality at 500 ppm,Aphis gossypii [2],≥ 90%
same,mortality at 3.5 ppm,Culex pipiens pallens; [8],≥ 95%
CCS(=O)(=O)c1cc(C(=O)NC2CSC2)cnc1-c1nc2cc(C(F)(F)F)cnc2n1C [Compound of Present Invention 1-36],"mortality at 2 mg/tube, 2 mg/tube",[5],100%
CCS(=O)(=O)c1cc(C(=O)Nc2ccc(Cl)cc2)cnc1-c1nc2cc(C(F)(F)F)cnc2n1C [Compound of Present Invention 1-20],mortality at 3.5 ppm,Culex pipiens pallens; [8],≥ 95%
CCS(=O)(=O)c1cc(C(=O)NC2CC2)cnc1-c1nc2cc(C(F)(F)F)cnc2n1C [Compound of Present Invention 1-24],"mortality at 2 mg/tube, 2 mg/tube",[5],100%
CCS(=O)(=O)c1cc(C(=O)OCCOC)cnc1-c1nc2cc(C(F)(F)F)cnc2n1C [Compound of Present Invention 1-33],"mortality at 2 mg/tube, 2 mg/tube",[5],100%
CCS(=O)(=O)c1cc(C(=O)OCc2ccccc2)cnc1-c1nc2cc(C(F)(F)F)cnc2n1C [Compound of Present Invention 1-32],mortality at 3.5 ppm,Culex pipiens pallens; [8],≥ 95%
same,"mortality at 2 mg/tube, 2 mg/tube",[5],100%
"CCS(=O)(=O)c1cc(C(=O)N2CCCC2)cnc1-c1nc2cc(C(F)(F)F)cnc2n1C [Compound of Present Invention 1-8, 5-ethylsulfonyl-6-(3-methyl-6-trifluoromethyl-3H-imidazo[4,5-b]pyridin-2-yl)nicotinoylpyrrolidine]",control value,Nilaparvata lugens [4],≥ 90%
"CCCOC(=O)c1cnc(-c2nc3cc(C(F)(F)F)cnc3n2C)c(S(=O)(=O)CC)c1 [Compound of Present Invention 1-4, propyl 5-ethylsulfonyl-6-(3-methyl-6-trifluoromethyl-3H-imidazo[4,5-b]pyridin-2-yl)nicotinate]",mortality at 500 ppm,Plutella xylostella; [7],≥ 80%
"CCS(=O)(=O)c1cc(C(=O)N(C)C)cnc1-c1nc2cc(C(F)(F)F)cnc2n1C [Compound of Present Invention 1-6, 5-ethylsulfonyl-N,N-dimethyl-6-(3-methyl-6-trifluoromethyl-3H-imidazo[4,5-b]pyridin-2-yl)nicotinamide]",mortality at 3.5 ppm,Culex pipiens pallens; [8],≥ 95%
same,mortality at 500 ppm,Plutella xylostella; [7],≥ 80%
same,mortality at 500 ppm,Nilaparvata lugens [4],≥ 90%
"CCS(=O)(=O)c1cc(C(=O)NC(C)(C)C)cnc1-c1nc2cc(C(F)(F)F)cnc2n1C [Compound of Present Invention 1-10, N-tert-butyl-5-ethylsulfonyl-6-(3-methyl-6-trifluoromethyl-3H-imidazo[4,5-b]pyridin-2-yl)nicotinamide]",mortality at 500 ppm,[3],≥ 90%
same,mortality at 500 ppm,Plutella xylostella; [7],≥ 80%
same,mortality at 500 ppm,Nilaparvata lugens [4],≥ 90%
"CCS(=O)(=O)c1cc(C(=O)NN(C)C)cnc1-c1nc2cc(C(F)(F)F)cnc2n1C [Compound of Present Invention 1-7, 5-ethylsulfonyl-N',N'-dimethyl-6-(3-methyl-6-trifluoromethy 1-3H-imidazo[4,5-b]pyridin-2-yl)nicotinic acid hydrazide]",mortality at 3.5 ppm,Culex pipiens pallens,≥ 95%
same,mortality at 500 ppm,Plutella xylostella,≥ 80%
CCS(=O)(=O)c1cc(C(N)=O)cnc1-c1nc2cc([S+]([O-])C(F)(F)F)ccc2o1 (centres unmarked) [Compound of Present Invention 1-41],mortality at 3.5 ppm,Culex pipiens pallens; [8],≥ 95%
same,mortality at 500 ppm,Plutella xylostella; [7],≥ 80%
"CCS(=O)(=O)c1cc(C(=O)N(C)OC)cnc1-c1nc2cc(C(F)(F)F)cnc2n1C [Compound of Present Invention 1-18, 5-ethylsulfonyl-N-methoxy-N-methyl-6-(3-methyl-6-trifluoromethyl-3H-imidazo[4,5-b]pyridin-2-yl)nicotinamide]",mortality at 500 ppm,Nilaparvata lugens [1],≥ 90%
same,mortality at 500 ppm,Aphis gossypii [2],≥ 90%
same,mortality at 500 ppm,Aphis gossypii [6],≥ 90%
CCOC(=O)c1cnc(-c2nc3cc([S+]([O-])C(F)(F)F)ccc3o2)c(S(=O)(=O)CC)c1 (centres unmarked) [Compound of Present Invention 1-39],mortality at 3.5 ppm,Culex pipiens pallens; [8],≥ 95%
same,mortality at 500 ppm,[3],≥ 90%
same,mortality at 500 ppm,Plutella xylostella; [7],≥ 80%
CCS(=O)(=O)c1cc(C(=O)OCC(F)(F)F)cnc1-c1nc2cc(C(F)(F)F)cnc2n1C [Compound of Present Invention 1-28],mortality at 3.5 ppm,Culex pipiens pallens; [8],≥ 95%
same,mortality at 500 ppm,[3],≥ 90%
"CCS(=O)(=O)c1cc(C(=O)OC)cnc1-c1nc2cc(C(F)(F)F)cnc2n1C [Compound of Present Invention 1-1, methyl 5-ethylsulfonyl-6-(3-methyl-6-trifluoromethyl-3H-imidazo[4,5-b]pyridin-2-yl)nicotinate]",mortality at 3.5 ppm,Culex pipiens pallens; [8],≥ 95%
same,mortality at 500 ppm,Plutella xylostella; [7],≥ 80%
same,mortality at 500 ppm,Musca domestica,100%

# — EP2955179A1, “CONDENSED HETEROCYCLIC COMPOUND” (Sumitomo Chemical Company Limited, priority 2013, dated 2014)
